What was measured:
Type in all cases: cell-based
[1] = tested on: HeLa cells (human cervical adenocarcinoma cells); experiment: Proliferation assay (alamarBlue) with HeLa cells; details: control at 40 μM, Table 68
Text: (§1) The antiproliferative activities of compounds falling under formula (Ia), (Ib) and (Ic), respectively, were investigated on cells or cell lines originating from a disorder of the haematopoietic system, including the myeloid cell compartment and the lymphoid cell compartment (T-cells and B-cells), the neuroendocrine system, the cervix, the breast, the ovaries, the lung, the gastrointestinal tract, and the mucosal epithelium, as well as from the skin epithelium and from the muscle. To this end, HL-60 cells, NB-4 cells, HH cells, RPMI-8402 cells, TANOUE cells, TT cells, HeLa cells, MDA-MB-231 cells, FU-OV-1 cells, LOU-NH91 cells, 23132/87 cells, CAL-27 cells, BHY cells, SCC-25 cells, A-431 cells, human primary epidermal keratinocytes (HPEK), and C2C12 cells were seeded into 96-well plates suitable for fluorescence assays (CORNING #3598) at following initial cell numbers: 1000 cells per well for HL-60; 1000 cells per well for NB-4; 5000 cells per well for HH; 5000 cells per well for RPMI-8402; 1500 cells per well for TANOUE; 9000 cells per well for TT; 2000 cells per well for HeLa; 3000 cells per well for MDA-MB-231; 3000 cells per well for FU-OV-1; 4000 cells per well for LOU-NH91; 2000 cells per well for 23132/87; 2000 cells per well for CAL-27; 1500 cells per well for BHY; 1500 cells per well for SCC-25; 700 cells per well for A-431; 1000 cells per well for HPEK; 500 cells per well for C2C12. The cells were treated with compounds at indicated final concentrations (diluted from the 1000× stock-solutions in DMSO to a final DMSO concentration of 0.1% v/v in H2O (Water For Injection, WFI, Fisherscientific #10378939)) or with the empty carrier DMSO at 0.1% v/v as control for 5 days. At day 5 after starting the treatments the cells were subjected to the alamarBlue® Proliferation Assay (Bio-Rad Serotec GmbH, BUF012B) according to the protocol of the manufacturer. The readout was taken with a multi-well plate-reader in the fluorescence mode with applying a filter for excitation at 560 nm (band width 10 nm) and for emission at 590 nm (band width 10 nm). Control treatments for growth inhibition with commercial compounds such as Methotrexate (MTREX) and Resveratrol (RES) were included on every plate. Some of the test compounds of the present invention were obtained and applied as their salts. According cases are indicated in the column “Specification” in Table 55 to Table 92 and by their sum formula in Table 93.
(§2) The assays were performed in duplicate or more replicates of independent single experiments each containing a six-fold replicate for every condition. For every individual plate, the measured fluorescence intensity values of the conditions with compound treatment were normalized against the corresponding equally weighted arithmetic mean of the fluorescence intensity values of the six DMSO treated control wells in order to obtain the relative values to a baseline level of 1.0.
(§3) Two independent outlier analyses were performed according to the methods by Peirce and Chauvenet (Ross, Journal of Engineering Technology 2003, 1-12). Outliers confirmed by at least one of the methods were excluded from the calculations but not more than one value out of six per compound within a single experiment. The weighted arithmetic mean (here abbreviated as AVEw) for each compound was calculated from the normalized values over all independent replicates of the single experiments comprising the six replicates each. The corresponding standard deviation for the weighted arithmetic mean was calculated according to the method described by Bronstein et al. (Bronstein, Semendjajew, Musiol, Müihlig, Taschenbuch der Mathematik, 5th edition 2001 (German), publisher: Verlag Harri Deutsch, Frankfurt am Main and Thun) and was combined with the Gauß' error propagation associated with the performed calculation for the normalization. The resulting standard deviation is herein referred to as “combined standard deviation”. […]

[2] = tested on: HL-60 cells (human acute myeloid leukemia cells); experiment: Proliferation assay (alamarBlue) with HL-60 cells
Text: as §1, §2, §3

[3] = tested on: NB-4 cells (human acute promyelocytic leukemia cells); experiment: Proliferation assay (alamarBlue) with NB-4 cells
Text: as §1, §2, §3

[4] = tested on: C2C12 cells (murine myoblast cells); experiment: Proliferation assay (alamarBlue) with C2C12 cells
Text: The antiproliferative activities of compounds falling under formula (Ia), (Ib) and (Ic), respectively, were investigated on cells or cell lines originating from a disorder of the haematopoietic system, including the myeloid cell compartment and the lymphoid cell compartment (T-cells and B-cells), the neuroendocrine system, the cervix, the breast, the ovaries, the lung, the gastrointestinal tract, and the mucosal epithelium, as well as from the skin epithelium and from the muscle. To this end, HL-60 cells, NB-4 cells, HH cells, RPMI-8402 cells, TANOUE cells, TT cells, HeLa cells, MDA-MB-231 cells, FU-OV-1 cells, LOU-NH91 cells, 23132/87 cells, CAL-27 cells, BHY cells, SCC-25 cells, A-431 cells, human primary epidermal keratinocytes (HPEK), and C2C12 cells were seeded into 96-well plates suitable for fluorescence assays (CORNING #3598) at following initial cell numbers: 1000 cells per well for HL-60; 1000 cells per well for NB-4; 5000 cells per well for HH; 5000 cells per well for RPMI-8402; 1500 cells per well for TANOUE; 9000 cells per well for TT; 2000 cells per well for HeLa; 3000 cells per well for MDA-MB-231; 3000 cells per well for FU-OV-1; 4000 cells per well for LOU-NH91; 2000 cells per well for 23132/87; 2000 cells per well for CAL-27; 1500 cells per well for BHY; 1500 cells per well for SCC-25; 700 cells per well for A-431; 1000 cells per well for HPEK; 500 cells per well for C2C12. […] The readout was taken with a multi-well plate-reader in the fluorescence mode with applying a filter for excitation at 560 nm (band width 10 nm) and for emission at 590 nm (band width 10 nm). […]
as §2, with “1.0. […]” for “1.0.”

[5] = tested on: BHY cells (human oral squamous cell carcinoma cells); experiment: Proliferation assay (alamarBlue) with BHY cells; parameters: key: fluorescence relative to mean of DMSO control wells = 1.0; details: for Activity Range (weighted arithmetic mean AVEw of normalized fluorescence intensity, relative to DMSO basis level 1.0): 20 μM; for Activity Range (weighted arithmetic mean of normalized fluorescence intensity, relative to DMSO basis level 1.0): control at 40 μM
Text: as §1, §2, §3

[6] = tested on: HH cells (human cutaneous T-cell lymphoma cells); experiment: Proliferation assay (alamarBlue) with HH cells
Text: as §1, §2, §3

[7] = tested on: LOU-NH91 cells (human lung squamous cell carcinoma cells); experiment: Proliferation assay (alamarBlue) with LOU-NH91 cells; details: for Activity Range (weighted arithmetic mean AVEw of normalized fluorescence intensity, relative to DMSO basis level 1.0): 20 μM; for Activity Range (weighted arithmetic mean of normalized fluorescence intensity, relative to DMSO basis level 1.0): control at 40 μM
Text: as §1, §2, §3

Oc1ccc(C=Cc2cc(O)cc(O)c2)cc1 [RES, Resveratrol]
Activity Range: weighted arithmetic mean (AVEw) of normalized fluorescence intensity relative to DMSO basis level 1.0 [1]: 0.4 ± 0.1 | Activity Range: weighted arithmetic mean (AVEw) of normalized fluorescence intensity, proliferation assay with HL-60 cells ([2]; 20 μM, relative to DMSO basis level 1.0, Table 55 (novel compounds)): 0.4 ± 0.1 | Activity Range: weighted arithmetic mean (AVEw) of normalized fluorescence intensity, proliferation assay with HL-60 cells ([2]; 20 μM, relative to DMSO basis level 1.0, Table 56 (compounds disclosed in PCT/EP2018/054686)): 0.4 ± 0.1 | Activity Range: weighted arithmetic mean (AVEw) of normalized fluorescence intensity, proliferation assay with HL-60 cells ([2]; control at 40 μM, relative to DMSO basis level 1.0, Table 55): 0.2 ± 0.1 | Activity Range: weighted arithmetic mean (AVEw) of normalized fluorescence intensity, proliferation assay with HL-60 cells ([2]; control at 40 μM, relative to DMSO basis level 1.0, Table 56): 0.2 ± 0.1 | Activity Range: weighted arithmetic mean (AVEw) of normalized fluorescence intensity, proliferation assay with NB-4 cells ([3]; 20 μM, relative to DMSO basis level 1.0, Table 57 (novel compounds)): 0.1 ± 0.0 | Activity Range: weighted arithmetic mean (AVEw) of normalized fluorescence intensity, proliferation assay with NB-4 cells ([3]; 20 μM, relative to DMSO basis level 1.0, Table 58 (compounds disclosed in PCT/EP2018/054686)): 0.1 ± 0.0 | Activity Range: weighted arithmetic mean (AVEw) of normalized fluorescence intensity, proliferation assay with NB-4 cells ([3]; control at 40 μM, relative to DMSO basis level 1.0, Table 57): 0.0 ± 0.0 | Activity Range: weighted arithmetic mean (AVEw) of normalized fluorescence intensity, proliferation assay with NB-4 cells ([3]; control at 40 μM, relative to DMSO basis level 1.0, Table 58): 0.0 ± 0.0 | Activity Range: weighted arithmetic mean (AVEw) of normalized fluorescence intensity, relative to DMSO basis level of 1.0 ([4]; compounds and controls at 20 μM): 0.8 ± 0.0 | Activity Range: weighted arithmetic mean (AVEw) of normalized fluorescence intensity, relative to DMSO basis level of 1.0 ([4]; control at 40 μM): 0.2 ± 0.1 | Activity Range (weighted arithmetic mean AVEw of normalized fluorescence intensity, relative to DMSO basis level 1.0) ([5]; Table 80 (compounds disclosed in PCT/EP2018/054686)): 0.5 ± 0.1 | Activity Range (weighted arithmetic mean AVEw of normalized fluorescence intensity, relative to DMSO basis level 1.0) ([5]; Table 81 (compounds disclosed in PCT/EP2018/054686)): 0.5 ± 0.1 | Activity Range (weighted arithmetic mean of normalized fluorescence intensity, relative to DMSO basis level 1.0) ([5]; Table 79): 0.3 ± 0.0 | Activity Range (weighted arithmetic mean of normalized fluorescence intensity, relative to DMSO basis level 1.0) ([5]; Table 80): 0.3 ± 0.0 | Activity Range (weighted arithmetic mean of normalized fluorescence intensity, relative to DMSO basis level 1.0) ([5]; Table 81): 0.3 ± 0.0 | Activity Range: weighted arithmetic mean (AVEw) of normalized fluorescence intensity, proliferation assay with HH cells ([6]; 20 μM, relative to DMSO basis level 1.0, Table 59 (novel compounds)): 0.6 ± 0.1 | Activity Range: weighted arithmetic mean (AVEw) of normalized fluorescence intensity, proliferation assay with HH cells ([6]; control at 40 μM, relative to DMSO basis level 1.0, Table 59): 0.4 ± 0.1 | Activity Range: weighted arithmetic mean (AVEw) of normalized fluorescence intensity, proliferation assay with HH cells ([6]; control at 40 μM, relative to DMSO basis level 1.0, Table 60): 0.4 ± 0.1 | Activity Range (weighted arithmetic mean AVEw of normalized fluorescence intensity, relative to DMSO basis level 1.0) ([7]; Table 73 (novel compounds)): 0.9 ± 0.1 | Activity Range (weighted arithmetic mean AVEw of normalized fluorescence intensity, relative to DMSO basis level 1.0) ([7]; Table 74 (compounds disclosed in PCT/EP2018/054686)): 0.9 ± 0.1 | Activity Range (weighted arithmetic mean of normalized fluorescence intensity, relative to DMSO basis level 1.0) ([7]; Table 73): 0.7 ± 0.0 | Activity Range (weighted arithmetic mean of normalized fluorescence intensity, relative to DMSO basis level 1.0) ([7]; Table 74): 0.7 ± 0.0
